Test results from publication PMC9976893, “Dynamic states of eIF6 and SDS variants modulate interactions with uL14 of the 60S ribosomal subunit” (Nucleic Acids Research, 2023).

Tested on: full-length human eIF6
Experiment: Surface plasmon resonance of uL14 peptides on immobilized eIF6
Conditions: BIAcore S200, eIF6 on CM5 chip, peptide 0-500 μM in 20 mM HEPES pH 7.4, 150 mM NaCl, 0.01% BSA, 0.002% Tween 20; repeated three times; non-specific binding subtracted
Description: SPR analyses were carried out using a BIAcore S200 instrument (GE-Healthcare). eIF6 (50 μg/ml) was solubilized in 20 mM ammonium acetate pH 4.0 and immediately immobilized on a CM5 sensor chip (4913 Response Units [RU] using NHS/EDC chemistry). After baseline stabilization, titrations were performed by injecting increasing concentrations (0–500 μM, 1:2 dilutions) of uL14-WT ([…]), the site-specific mutant peptides, or the uL14-ΔC ([…]) peptide, solubilized in running buffer (20 mM HEPES pH 7.4, 150 mM NaCl, 0.01% BSA, and 0.002% Tween 20). At the end of each titration, a solution of 20 mM HEPES pH 7.4 and 1.5 M NaCl was used to regenerate the chip. The flow rate was 25 μl/min. Peptides were solubilized in water and their concentration determined at 280 nm using the molar extinction coefficient ϵ280 = 5500 M^−1 cm^−1. To ensure reproducibility, each experiment was repeated three times. Sensograms were corrected for baseline.
For SPR studies, full-length elF6 was immobilized to the surface, and the C-terminal peptide of uL14 (aa 121–140) was used in the fluid phase (Figure 2D). […] The contribution of non-specific binding of the peptide to the surface was subtracted for each sensorgram. […] It further highlighted the significance of the N135 and S138 for interaction with eIF6. […]

Sequence: VAKECADLWPRI [uL14-ΔC]
- binding to immobilized eIF6 (SPR): complete loss in binding
